The values that follow come from patent US20220031719A1, “ANTIVIRAL THERAPEUTIC DRUG COMBINATIONS” (THE UNIVERSITY OF TULSA, priority 2020, published 2022).

What all share (format): cell-based
One test relates to h293 cells. Put plainly: ATP levels by CellTiterGlo in h293 cells (inhibition assays). As for the experimental part:
Drugs. All drugs were obtained from Sigma except diphenhydramine (purchased commercially as 25 mg allergy tablets) and famotidine (purchased commercially as 10 mg acid controller tablets). All compounds were dissolved in ultrapure water except quinine, which was re-suspended in ethanol. Rotenone was prepared as a concentrated solution in 100% DMSO, then diluted to a working stock (125 μM) in water (final concentration 2.5 μM). 2-DG was used at a final concentration of 20 mM. Diphenhydramine and famotidine were crushed by mortar and pestle, re-suspended in H2O and rotated at room temperature for 1 h. Insoluble material (e.g., cellulose) was removed by centrifugation. […] Cigar smoke was generated from commercially available Backwoods brand containing nicotine.
Cell culture. The following immortalized cells were obtained from the American Tissue Culture Collection: H293 kidney epithelial cells, HDFs (human diploid fibroblasts immortalized by telomerase expression), and U549 lung carcinoma cells. Cells were maintained in DMEM (Fisher Scientific) supplemented with 10% fetal bovine serum (FBS; Atlas Biologicals, Fort Collins, Colo.). DMEM media contained high glucose (25 mM) and the standard amino acids as carbon sources. Cultures were maintained in a 37° C. water jacketed incubator with 5% CO2. When needed cells were removed from the plate using trypsin. It is important to note that FBS and many commercial preparations of trypsin contain glucose. Unless indicated otherwise, after removal, cells were pelleted by centrifugation (2K 4 min room temperature), aspirated, and re-suspended in the desired media. Other media used in this study were DMEM no glu (Fisher Scientific), which is identical to DMEM except it lacks glucose. L-15 media (Fisher Scientific) contains amino acids but replaces glucose with 5 mM galactose. It also lacks sodium bicarbonate (NaHCO3), which was added to the same concentration as in DMEM (44 mM) in all experiments except FIGS. 4A and 4B. Its presence is essential to buffer the media and prevent its acidification in the CO2 incubator. A DMEM type media lacking sodium bicarbonate was also generated using individual components obtained from Fisher Scientific and Sigma. This media was used for FIG. 4D, where its pH was varied by the addition of 500 mM Hepes pH 7-10 (25 mM final concentration).
Inhibition assays. In general, short term immediate effects of the indicated drugs on ATP levels were analyzed by removing growing cells from a p100 mm plate using trypsin, washing with PBS, and re-suspending in the indicated media. After counting using a hemocytometer, 25-50k cells in […] media were distributed in a 96 well white flat bottom, non-treated polystyrene assay plate. In some cases, media was supplemented by the addition of glucose (20 mM final). The plate was typically incubated for 30 min at 37° C. in a CO2 incubator to allow metabolic pathways to adapt to the media. Drugs when then added in the order and at the concentration indicated for each figure, followed by shaking (700 RPM 10 sec), and returned to the incubator. Incubation times were generally between 1 and 2 h so that direct and immediate effects on ATP production could be evaluated. In most cases samples were run in duplicate or triplicate and the standard deviation determined. FIG. 1B is a more traditional drug analysis, in that cells were seeded in a tissue culture treated 96-well plate, allowed to attach overnight, then treated with 10 μL CellTiterBlue resazurin reagent (Promega) to determine effects on viability. Plates were shaken and incubated in the dark for 1-4 h, followed by excitation at 560 nm and determination of fluorescence emitted at 590 nm using a Tecan Safire plate reader. […] Luciferase activity alone (FIG. 1C) was measured by adding 10 CellTiterGlo reagent to 100 μL DMEM media in the absence of cells. […] The luminescence was determined immediately and at later times as described above.
(In general: ATP-based viability assays read luminescence as a measure of living cells.)

The test system of test [1] is Human Diploid Fibroblasts (HDFs). Put plainly: ATP levels by CellTiterGlo in Human Diploid Fibroblasts. The note with it: HDFs in DMEM, in the presence of 2-DG.
Description: Cell culture. […] Cells were maintained in DMEM (Fisher Scientific) supplemented with 10% fetal bovine serum (FBS; Atlas Biologicals, Fort Collins, Colo.). DMEM media contained high glucose (25 mM) and the standard amino acids as carbon sources. Cultures were maintained in a 37° C. water jacketed incubator with 5% CO2. When needed cells were removed from the plate using trypsin. […] Unless indicated otherwise, after removal, cells were pelleted by centrifugation (2K 4 min room temperature), aspirated, and re-suspended in the desired media.
Inhibition assays. In general, short term immediate effects of the indicated drugs on ATP levels were analyzed by removing growing cells from a p100 mm plate using trypsin, washing with PBS, and re-suspending in the indicated media. After counting using a hemocytometer, 25-50k cells in 100 mL media were distributed in a 96 well white flat bottom, non-treated polystyrene assay plate. In some cases, media was supplemented by the addition of glucose (20 mM final). […] Incubation times were generally between 1 and 2 h so that direct and immediate effects on ATP production could be evaluated. In most cases samples were run in duplicate or triplicate and the standard deviation determined. […] The luminescence was determined immediately and at later times as described above.
For a further test, the system named is Red blood cells. Put plainly: ATP levels by CellTiterGlo in red blood cells. The note with it: RBCs in DMEM containing 5 mM glucose.
The mark [2] stands for this setting: h293 cells in DMEM containing amino acids but lacking glucose, drug alone.
[3] abbreviates: h293 cells in DMEM, in the presence of 2-DG (forced TCA/ETC), drug 2 h.
The mark [4] stands for this setting: h293 cells in DMEM, in the presence of rotenone (forced glycolysis), drug 2 h.
Where [5] appears, read: h293 cells in L-15 media (galactose, plus NaHCO3), no glucose, drug titration.
The mark [6] stands for this setting: h293 cells in L-15 media plus glucose, drug titration.
[7] abbreviates: h293 cells in DMEM no glucose (amino acids only), metabolic inhibitors for 1 h.
[8] abbreviates: h293 cells in DMEM with glucose, metabolic inhibitors for 1 h (2-DG 20 mM, rotenone 2.5 μM).
The mark [9] stands for this setting: h293 cells in L-15 media (galactose instead of glucose), metabolic inhibitors.
[10] abbreviates: h293 cells in L-15 media lacking NaHCO3 (acidified), 37° C. CO2 incubator.
[11] abbreviates: h293 cells in DMEM (glucose and amino acids), drug alone, short exposure (2 h), no 2-DG or rotenone.

“Also recorded” adds a separate entry of the source. Read-outs that look alike come from different tables or passages of the source.

Consider `CCN(CCO)CCCC(C)Nc1ccnc2cc(Cl)ccc12` (stereo not shown) [HCQ, hydroxychloroquine], for which the “effect on ATP production” value with h293 cells (setting [2]) is “inhibited ATP production”; in the test on h293 cells (setting [5]), “inhibited ATP production; also recorded: very sensitive”; with h293 cells (setting [6]), “prevented inhibition”. In addition, the “effect on ATP levels” value in the test with h293 cells (setting [3]) is listed as “synergistic effect that dramatically reduced ATP production”; with h293 cells (setting [4]), “no effect on ATP levels”.

For `C=C[C@H]1C[N@@]2CC[C@H]1C[C@H]2[C@H](O)c1ccnc2ccc(OC)cc12` [Quinine, quinine], the “effect on ATP levels” value in the test with h293 cells (setting [3]) was “much more dramatic in the presence of 2-DG”.

`CN1CCCC1c1cccnc1` (stereo not shown) [nicotine]: the “effect on ATP levels” value in the test on h293 cells is “specificity for inhibiting mitochondrial ATP production”.

`C=C(C)[C@H]1Cc2c(ccc3c2O[C@@H]2COc4cc(OC)c(OC)cc4[C@@H]2C3=O)O1` [rotenone]: the “effect on ATP production” value with h293 cells (setting [7]) is listed as “complete inhibition”; in the test with h293 cells (setting [9]), “completely inhibited”; in the test with h293 cells (setting [10]), “sensitive”. In the test with h293 cells (setting [8]), the “effect on ATP levels” value is reported as “no effect”.

With `CCN(CC)CCCC(C)Nc1ccnc2cc(Cl)ccc12` (stereo not shown) [CQ, chloroquine], the “effect on ATP levels” value in test [1] is “confirmed”; in the test with h293 cells (setting [11]), “no apparent effect on ATP levels”; in the test on h293 cells (h293 cells in DMEM no glucose with glucose added back) it was “minimal effect on ATP levels”; in the test on h293 cells (setting [3]), “markedly reduced; also recorded: synergistic effect that dramatically reduced ATP production”; with h293 cells (setting [4]), “no effect on ATP levels”. Further, the “effect on ATP production” value is “inhibited ATP production” in the test on h293 cells (setting [2]), “inhibited ATP production; also recorded: very sensitive” in the test on h293 cells (setting [5]), “no CQ inhibition” in the test with h293 cells (setting [10]) and “prevented inhibition” in the test on h293 cells (setting [6]). In the test on h293 cells (h293 cells in L-15 media plus sodium bicarbonate, 250 μM CQ), the “time course of inhibition of ATP production” value is recorded as “increased dramatically over time”. The “ATP production after order of addition” value in the test with h293 cells (h293 cells in media containing glucose treated with CQ, then 2-DG added) is “re-established inhibition of ATP production; also recorded: CQ inhibition is revealed in the presence of 2-DG”. Further, the “ATP levels after order of addition” value with h293 cells (h293 cells pre-incubated with CQ 2 h in media lacking glucose, then glucose added for 1 h) is “re-established ATP levels; also recorded: glucose overcomes CQ inhibition”. Further, in the test with h293 cells (h293 cells, 1 h in DMEM type media lacking NaHCO3 adjusted to pH 7 to 10 with 25 mM Hepes, then L-15), the “pH dependency of inhibition of ATP production” value is recorded as “dramatic increase in CQ inhibition with increasing pH; also recorded: Increasing media pH increases ability of CQ to inhibit ATP production”. Besides, in the test on h293 cells (h293 cells, overnight titration, same cells as CellTiterBlue), the “effect on ATP levels (CellTiterGlo)” value is reported as “clear CQ dependent decrease”. The “effect on ATP production via glycolysis” value in the test on Red blood cells is given as “no effect on ATP production”.

`O=CC[C@@H](O)[C@H](O)[C@H](O)CO` [2-DG, 2-deoxy-D-glucose]: the “effect on ATP production” value is given as “significant inhibition” with h293 cells (setting [7]), “partially inhibited” with h293 cells (setting [9]) and “sensitive” with h293 cells (setting [10]). Also, in the test on h293 cells (setting [8]), the “effect on ATP levels” value is reported as “minimal effect on ATP levels”.

Regarding `CN(C)CCOC(c1ccccc1)c1ccccc1` [diphenhydramine], the entries for the “effect on ATP levels” value with h293 cells (setting [11]) and in the test with h293 cells (setting [3]) were “minimal effect on ATP production” and “strongly inhibited; also recorded: specifically inhibited mitochondrial ATP production”, respectively.

On to `NC(N)=Nc1nc(CSCCC(N)=NS(N)(=O)=O)cs1` [famotidine], for which the “effect on ATP levels” value in the test with h293 cells (setting [11]) and in the test with h293 cells (setting [3]) was “no effect on ATP production” in each case.
